The values below come from publication PMC9927415, “Tyrosine Kinase Inhibitors Display Potent Activity against Cryptosporidium parvum” (Microbiology Spectrum, 2022).

The inhibition is the drop in the measured response relative to a control, in per cent.

Holding throughout (assay): KINOMEscan competitive binding, whole panel
Test [1] deals with T1, panel of 203 kinases (Homo sapiens, UniProt P00519).
T1 construct: purchased DiscoverX (KINOMEscan)
The settings on record: 10 µM, n=1; kinase ABL1; read-out: Percent inhibition ABL1. A digest of the protocol: (§1)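 Read-out is the amount of kinase still captured on an immobilized ATP-site probe after exposure to test compound, expressed as percentage inhibition.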

The target in test [2] is T2, panel of 203 kinases (Homo sapiens, UniProt P07332).
T2 construct: purchased DiscoverX (KINOMEscan)
The settings on record: 10 µM, n=1; kinase FES; read-out: Percent inhibition FES. A digest of the protocol: as §1

In test [3] the target is T3, panel of 203 kinases (Homo sapiens, UniProt P07333).
T3 construct: purchased DiscoverX (KINOMEscan)
The settings on record: 10 µM, n=1; kinase CSF1R; read-out: Percent inhibition CSF1R. A digest of the protocol:
as §1

For test [4], the target named is T4, panel of 203 kinases (Homo sapiens, UniProt P08631).
T4 construct: purchased DiscoverX (KINOMEscan)
The settings on record: 10 µM, n=1; kinase HCK; read-out: Percent inhibition HCK. A digest of the protocol: as §1

In test [5] the target is T5, panel of 203 kinases (Homo sapiens, UniProt P16591).
T5 construct: purchased DiscoverX (KINOMEscan)
The settings on record: 10 µM, n=1; kinase FER; read-out: Percent inhibition FER. A digest of the protocol:
as §1

In test [6] the target is T6, panel of 203 kinases (Homo sapiens, UniProt P29376).
T6 construct: purchased DiscoverX (KINOMEscan)
The settings on record: 10 µM, n=1; kinase LTK; read-out: Percent inhibition LTK. A digest of the protocol:
as §1

Test [7] concerns the target T7, panel of 203 kinases (Homo sapiens, UniProt P37023).
T7 construct: purchased DiscoverX (KINOMEscan)
The settings on record: 10 µM, n=1; kinase ACVRL1; read-out: Percent inhibition ACVRL1. A digest of the protocol: as §1

Test [8] addresses T8, panel of 203 kinases (Homo sapiens, UniProt P41240).
T8 construct: purchased DiscoverX (KINOMEscan)
The settings on record: 10 µM, n=1; kinase CSK; read-out: Percent inhibition CSK. A digest of the protocol: as §1

In test [9] the target is T9, panel of 203 kinases (Homo sapiens, UniProt P49761).
T9 construct: purchased DiscoverX (KINOMEscan)
The settings on record: 10 µM, n=1; kinase CLK3; read-out: Percent inhibition CLK3. A digest of the protocol:
as §1

In test [10] the target is T10, panel of 203 kinases (Homo sapiens, UniProt Q08881).
T10 construct: purchased DiscoverX (KINOMEscan)
T10 sequence (Q08881 1-620): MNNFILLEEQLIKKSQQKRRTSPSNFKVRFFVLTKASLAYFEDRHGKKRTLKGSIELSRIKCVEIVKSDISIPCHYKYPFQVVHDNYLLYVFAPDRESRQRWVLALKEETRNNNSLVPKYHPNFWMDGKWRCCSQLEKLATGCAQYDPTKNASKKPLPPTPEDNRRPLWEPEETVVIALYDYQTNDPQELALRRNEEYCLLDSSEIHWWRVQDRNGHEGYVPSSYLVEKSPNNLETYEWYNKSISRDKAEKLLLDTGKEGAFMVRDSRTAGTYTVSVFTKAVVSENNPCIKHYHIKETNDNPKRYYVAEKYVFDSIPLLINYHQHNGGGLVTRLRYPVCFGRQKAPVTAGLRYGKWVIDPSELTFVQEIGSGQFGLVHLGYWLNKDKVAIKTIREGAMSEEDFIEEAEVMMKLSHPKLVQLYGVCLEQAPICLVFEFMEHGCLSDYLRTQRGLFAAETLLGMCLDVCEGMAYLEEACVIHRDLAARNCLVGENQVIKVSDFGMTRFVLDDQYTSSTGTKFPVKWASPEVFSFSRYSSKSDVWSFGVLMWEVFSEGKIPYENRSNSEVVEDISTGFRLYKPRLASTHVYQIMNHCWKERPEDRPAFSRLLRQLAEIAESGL
The settings on record: 10 µM, n=1; kinase ITK; read-out: Percent inhibition ITK. A digest of the protocol:
as §1

Test [11] addresses T11, panel of 203 kinases (Homo sapiens, UniProt Q13043).
T11 construct: purchased DiscoverX (KINOMEscan)
T11 sequence (Q13043 1-487): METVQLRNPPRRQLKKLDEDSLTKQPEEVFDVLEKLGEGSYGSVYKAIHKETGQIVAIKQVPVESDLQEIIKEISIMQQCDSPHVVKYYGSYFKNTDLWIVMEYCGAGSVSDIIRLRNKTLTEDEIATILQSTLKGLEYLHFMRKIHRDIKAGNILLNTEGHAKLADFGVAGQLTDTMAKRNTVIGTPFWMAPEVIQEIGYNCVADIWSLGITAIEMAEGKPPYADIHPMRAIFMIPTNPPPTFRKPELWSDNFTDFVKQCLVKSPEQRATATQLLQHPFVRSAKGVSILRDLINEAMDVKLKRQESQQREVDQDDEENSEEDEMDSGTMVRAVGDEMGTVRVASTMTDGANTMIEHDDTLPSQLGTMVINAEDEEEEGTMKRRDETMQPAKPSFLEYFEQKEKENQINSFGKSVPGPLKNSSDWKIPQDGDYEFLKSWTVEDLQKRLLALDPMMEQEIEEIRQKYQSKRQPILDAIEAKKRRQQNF
The settings on record: 10 µM, n=1; kinase MST1; read-out: Percent inhibition MST1. A digest of the protocol: as §1

Test [12] concerns the target T12, panel of 203 kinases (Homo sapiens, UniProt Q13705).
T12 construct: purchased DiscoverX (KINOMEscan)
The settings on record: 10 µM, n=1; kinase ACVR2B; read-out: Percent inhibition ACVR2B. A digest of the protocol:
as §1

In test [13] the target is T13, panel of 203 kinases (Homo sapiens, UniProt Q8IU85).
T13 construct: purchased DiscoverX (KINOMEscan)
The settings on record: 10 µM, n=1; kinase CAMK1D; read-out: Percent inhibition CAMK1D. A digest of the protocol:
as §1

The target in test [14] is T14, panel of 203 kinases (Homo sapiens, UniProt Q8N5S9).
T14 construct: purchased DiscoverX (KINOMEscan)
The settings on record: 10 µM, n=1; kinase CAMKK1; read-out: Percent inhibition CAMKK1. A digest of the protocol:
as §1

Test [15] concerns the target T15, panel of 203 kinases (Homo sapiens, UniProt Q96GD4).
T15 construct: purchased DiscoverX (KINOMEscan)
The settings on record: 10 µM, n=1; kinase AURKB; read-out: Percent inhibition AURKB. A digest of the protocol: as §1

For test [16], the target named is T16, panel of 203 kinases (Homo sapiens, UniProt Q9P289).
T16 construct: purchased DiscoverX (KINOMEscan)
The settings on record: 10 µM, n=1; kinase MST4; read-out: Percent inhibition MST4. A digest of the protocol: as §1

Each structure is given as a SMILES string.

T9 sequence (P49761 whole entry): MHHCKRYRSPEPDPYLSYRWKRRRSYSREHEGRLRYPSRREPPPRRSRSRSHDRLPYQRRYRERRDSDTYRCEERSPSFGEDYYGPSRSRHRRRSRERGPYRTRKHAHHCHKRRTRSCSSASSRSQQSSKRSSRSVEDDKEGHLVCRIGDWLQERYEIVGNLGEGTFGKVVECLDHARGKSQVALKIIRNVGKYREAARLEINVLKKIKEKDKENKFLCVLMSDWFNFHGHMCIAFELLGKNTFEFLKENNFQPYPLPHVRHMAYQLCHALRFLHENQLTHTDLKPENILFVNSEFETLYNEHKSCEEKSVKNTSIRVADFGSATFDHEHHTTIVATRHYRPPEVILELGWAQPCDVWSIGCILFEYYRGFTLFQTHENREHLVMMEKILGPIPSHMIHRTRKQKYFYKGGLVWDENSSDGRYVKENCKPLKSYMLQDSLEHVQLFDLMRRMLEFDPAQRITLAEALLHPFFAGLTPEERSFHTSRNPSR
T8 sequence (P41240 whole entry): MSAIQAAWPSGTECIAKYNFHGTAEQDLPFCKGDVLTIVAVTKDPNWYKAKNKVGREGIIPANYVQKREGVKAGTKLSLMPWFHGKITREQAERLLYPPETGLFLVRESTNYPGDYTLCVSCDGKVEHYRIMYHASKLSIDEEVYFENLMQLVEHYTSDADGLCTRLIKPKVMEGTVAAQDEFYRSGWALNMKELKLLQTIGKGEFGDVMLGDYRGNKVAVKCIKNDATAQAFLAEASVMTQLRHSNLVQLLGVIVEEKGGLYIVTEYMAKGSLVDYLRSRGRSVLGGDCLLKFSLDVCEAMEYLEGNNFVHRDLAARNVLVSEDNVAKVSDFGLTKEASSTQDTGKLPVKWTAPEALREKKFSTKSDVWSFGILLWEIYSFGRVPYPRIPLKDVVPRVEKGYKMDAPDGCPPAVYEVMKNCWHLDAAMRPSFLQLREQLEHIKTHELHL
T3 sequence (P07333 20-972): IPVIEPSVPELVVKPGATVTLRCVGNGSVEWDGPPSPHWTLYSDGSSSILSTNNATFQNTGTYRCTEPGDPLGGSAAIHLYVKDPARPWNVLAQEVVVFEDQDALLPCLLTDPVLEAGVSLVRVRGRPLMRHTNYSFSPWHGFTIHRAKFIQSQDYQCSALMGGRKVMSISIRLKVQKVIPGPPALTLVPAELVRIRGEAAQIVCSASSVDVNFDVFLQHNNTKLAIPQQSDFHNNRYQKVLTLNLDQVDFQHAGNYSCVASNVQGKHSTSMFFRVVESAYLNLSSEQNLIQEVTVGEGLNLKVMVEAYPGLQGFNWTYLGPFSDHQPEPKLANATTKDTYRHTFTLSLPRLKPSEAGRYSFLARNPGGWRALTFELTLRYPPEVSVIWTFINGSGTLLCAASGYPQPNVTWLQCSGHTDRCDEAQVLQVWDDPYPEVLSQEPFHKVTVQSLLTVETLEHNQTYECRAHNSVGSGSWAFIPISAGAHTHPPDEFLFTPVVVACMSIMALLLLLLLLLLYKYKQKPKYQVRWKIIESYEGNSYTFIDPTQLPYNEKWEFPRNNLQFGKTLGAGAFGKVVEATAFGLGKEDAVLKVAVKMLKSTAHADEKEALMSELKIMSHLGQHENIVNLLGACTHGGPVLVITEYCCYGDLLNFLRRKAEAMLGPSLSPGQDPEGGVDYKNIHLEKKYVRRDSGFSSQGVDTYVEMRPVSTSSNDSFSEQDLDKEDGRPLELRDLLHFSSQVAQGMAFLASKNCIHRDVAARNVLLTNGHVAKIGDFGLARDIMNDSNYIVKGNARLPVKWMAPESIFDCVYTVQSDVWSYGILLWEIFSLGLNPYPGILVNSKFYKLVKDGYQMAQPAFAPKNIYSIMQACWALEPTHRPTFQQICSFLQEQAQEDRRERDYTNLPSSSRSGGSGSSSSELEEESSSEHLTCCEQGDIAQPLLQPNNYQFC
T16 sequence (Q9P289 whole entry): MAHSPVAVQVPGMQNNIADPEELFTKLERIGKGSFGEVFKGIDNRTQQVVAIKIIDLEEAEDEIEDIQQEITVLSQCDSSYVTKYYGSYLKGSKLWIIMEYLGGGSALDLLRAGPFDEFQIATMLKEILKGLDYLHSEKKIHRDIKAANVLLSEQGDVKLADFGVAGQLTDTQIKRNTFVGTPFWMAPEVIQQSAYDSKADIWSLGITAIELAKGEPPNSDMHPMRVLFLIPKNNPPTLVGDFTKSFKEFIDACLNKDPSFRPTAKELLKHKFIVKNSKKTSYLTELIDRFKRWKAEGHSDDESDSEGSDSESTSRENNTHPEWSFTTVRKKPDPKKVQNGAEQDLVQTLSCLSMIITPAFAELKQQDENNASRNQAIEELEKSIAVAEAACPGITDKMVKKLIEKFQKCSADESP
T13 sequence (Q8IU85 whole entry): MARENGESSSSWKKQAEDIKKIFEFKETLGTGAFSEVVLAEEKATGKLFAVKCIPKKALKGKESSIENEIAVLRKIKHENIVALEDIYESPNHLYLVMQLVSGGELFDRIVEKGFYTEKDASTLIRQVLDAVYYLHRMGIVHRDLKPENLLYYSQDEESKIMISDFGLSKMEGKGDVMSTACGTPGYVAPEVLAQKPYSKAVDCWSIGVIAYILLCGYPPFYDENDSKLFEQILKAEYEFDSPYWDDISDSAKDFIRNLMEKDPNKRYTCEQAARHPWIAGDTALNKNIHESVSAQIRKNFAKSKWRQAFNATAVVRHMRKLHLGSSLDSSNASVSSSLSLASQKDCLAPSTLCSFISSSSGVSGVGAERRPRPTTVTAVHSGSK
T5 sequence (P16591 whole entry): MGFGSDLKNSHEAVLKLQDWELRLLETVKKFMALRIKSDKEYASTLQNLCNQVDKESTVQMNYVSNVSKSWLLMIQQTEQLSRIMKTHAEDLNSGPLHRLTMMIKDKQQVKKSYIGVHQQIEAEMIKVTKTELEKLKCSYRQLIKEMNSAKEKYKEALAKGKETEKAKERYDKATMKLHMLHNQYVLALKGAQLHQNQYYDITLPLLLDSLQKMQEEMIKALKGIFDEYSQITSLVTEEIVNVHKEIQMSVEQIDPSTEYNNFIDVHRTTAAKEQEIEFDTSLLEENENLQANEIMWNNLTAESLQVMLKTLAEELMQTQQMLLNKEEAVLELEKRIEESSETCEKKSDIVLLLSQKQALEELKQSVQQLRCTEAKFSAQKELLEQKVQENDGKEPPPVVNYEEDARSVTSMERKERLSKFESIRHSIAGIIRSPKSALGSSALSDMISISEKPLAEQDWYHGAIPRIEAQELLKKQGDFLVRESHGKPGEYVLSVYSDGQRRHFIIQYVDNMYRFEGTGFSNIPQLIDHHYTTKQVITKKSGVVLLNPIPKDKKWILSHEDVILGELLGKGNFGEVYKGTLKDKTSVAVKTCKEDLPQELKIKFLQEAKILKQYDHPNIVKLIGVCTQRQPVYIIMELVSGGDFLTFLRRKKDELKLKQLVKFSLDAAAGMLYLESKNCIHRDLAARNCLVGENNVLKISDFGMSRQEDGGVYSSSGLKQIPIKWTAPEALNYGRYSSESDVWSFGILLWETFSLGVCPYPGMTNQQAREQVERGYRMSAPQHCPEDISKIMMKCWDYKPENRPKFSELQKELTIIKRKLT
T4 sequence (P08631 whole entry): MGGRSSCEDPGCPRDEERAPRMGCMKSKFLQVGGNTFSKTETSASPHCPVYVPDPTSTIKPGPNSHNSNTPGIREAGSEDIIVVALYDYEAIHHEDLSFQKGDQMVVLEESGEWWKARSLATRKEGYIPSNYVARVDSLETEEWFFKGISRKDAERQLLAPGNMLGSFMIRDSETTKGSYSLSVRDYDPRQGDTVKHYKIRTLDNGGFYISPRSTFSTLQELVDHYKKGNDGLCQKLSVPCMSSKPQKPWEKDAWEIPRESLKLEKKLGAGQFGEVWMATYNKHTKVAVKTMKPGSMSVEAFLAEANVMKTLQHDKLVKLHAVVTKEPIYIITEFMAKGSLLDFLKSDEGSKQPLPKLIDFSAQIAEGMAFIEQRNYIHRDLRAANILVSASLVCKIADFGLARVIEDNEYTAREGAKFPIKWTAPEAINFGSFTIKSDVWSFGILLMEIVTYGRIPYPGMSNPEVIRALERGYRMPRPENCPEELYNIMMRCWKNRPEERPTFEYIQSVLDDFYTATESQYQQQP
T14 sequence (Q8N5S9 whole entry): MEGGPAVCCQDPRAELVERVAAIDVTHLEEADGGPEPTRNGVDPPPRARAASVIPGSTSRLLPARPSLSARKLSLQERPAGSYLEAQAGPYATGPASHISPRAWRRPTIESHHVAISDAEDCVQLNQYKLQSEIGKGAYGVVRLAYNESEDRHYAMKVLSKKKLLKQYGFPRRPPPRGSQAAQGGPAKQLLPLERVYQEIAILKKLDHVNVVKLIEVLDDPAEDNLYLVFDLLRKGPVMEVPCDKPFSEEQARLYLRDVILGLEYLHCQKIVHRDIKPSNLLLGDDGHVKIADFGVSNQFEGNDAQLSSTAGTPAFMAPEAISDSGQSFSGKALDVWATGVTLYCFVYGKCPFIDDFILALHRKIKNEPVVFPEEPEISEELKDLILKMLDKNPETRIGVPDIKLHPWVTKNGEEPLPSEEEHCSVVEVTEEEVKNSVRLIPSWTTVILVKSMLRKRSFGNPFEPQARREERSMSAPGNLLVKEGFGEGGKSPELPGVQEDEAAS
T15 sequence (Q96GD4 whole entry): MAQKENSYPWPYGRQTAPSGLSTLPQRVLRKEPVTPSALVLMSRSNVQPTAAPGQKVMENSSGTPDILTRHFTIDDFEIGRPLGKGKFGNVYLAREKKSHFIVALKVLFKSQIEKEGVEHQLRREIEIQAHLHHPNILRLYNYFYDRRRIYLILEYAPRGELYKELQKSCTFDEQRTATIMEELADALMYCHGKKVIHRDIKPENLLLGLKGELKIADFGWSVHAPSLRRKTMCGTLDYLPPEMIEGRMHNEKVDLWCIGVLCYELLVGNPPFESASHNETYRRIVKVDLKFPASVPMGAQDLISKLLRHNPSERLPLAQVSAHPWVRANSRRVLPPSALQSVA

On to `Nc1ncc2c(-c3ccncc3)c[nH]c2n1` [Compound 11], for which the inhibition at 10 µM was 0% at panel of 203 kinases [1]; 0% on panel of 203 kinases [2]; 0% on panel of 203 kinases [3]; 66.9% on panel of 203 kinases [4]; 0% at panel of 203 kinases [5]; 0% at panel of 203 kinases [6]. The inhibition at 10 µM at panel of 203 kinases [7] stood at 0%; on panel of 203 kinases [8], 0%; at panel of 203 kinases [9] it was 84.9%; on panel of 203 kinases [10], 73.2%; on panel of 203 kinases [11] it was 0%; at panel of 203 kinases [12], 65.7%. In addition, the inhibition at 10 µM on panel of 203 kinases [13] worked out at 0%; on panel of 203 kinases [14], 0%; at panel of 203 kinases [15], 65.6%; at panel of 203 kinases [16] it was 84%.

Turning to `COc1cc(Nc2nccc(-c3sc(N)nc3-c3cccc(NC(=O)c4c(F)cccc4F)c3)n2)cc(OC)c1OC` [Compound 7], the inhibition at 10 µM is 99.7% at panel of 203 kinases [1]; 99.8% at panel of 203 kinases [2]; 100% at panel of 203 kinases [3]; 99.7% on panel of 203 kinases [4]; 99% on panel of 203 kinases [5]; 0% on panel of 203 kinases [6]. The inhibition at 10 µM at panel of 203 kinases [7] came to 0%; on panel of 203 kinases [8], 100%; at panel of 203 kinases [9], 0%; at panel of 203 kinases [10], 0%; on panel of 203 kinases [11] it was 97.4%; on panel of 203 kinases [12], 97.5%. The inhibition at 10 µM at panel of 203 kinases [13] came to 91.8%; at panel of 203 kinases [14], 0%; on panel of 203 kinases [15], 100%; at panel of 203 kinases [16] it was 89.2%.
